Test results: ChEMBL document CHEMBL4732252, “Generating Selective Leads for Mer Kinase Inhibitors-Example of a Comprehensive Lead-Generation Strategy” (J Med Chem, 2021)
Converted amounts (≈) assume the structure as drawn.

Tests used:
[1] = Aqueous solubility of the compound; type: physicochemical
[2] = target: T1, Tyrosine-protein kinase receptor UFO (Homo sapiens, UniProt P30530); experiment: (§1) Inhibition of GST-tagged AXL (unknown origin) (464 to 485 residues) using Axltide (CKKSRGDYMTMQJG-acid) peptide as substrate preincubated for 30 mins followed by substrate and ATP addition at Km concentration measured after 180 mins by RapidFire LC-MS analysis
T1 sequence (P30530 whole entry): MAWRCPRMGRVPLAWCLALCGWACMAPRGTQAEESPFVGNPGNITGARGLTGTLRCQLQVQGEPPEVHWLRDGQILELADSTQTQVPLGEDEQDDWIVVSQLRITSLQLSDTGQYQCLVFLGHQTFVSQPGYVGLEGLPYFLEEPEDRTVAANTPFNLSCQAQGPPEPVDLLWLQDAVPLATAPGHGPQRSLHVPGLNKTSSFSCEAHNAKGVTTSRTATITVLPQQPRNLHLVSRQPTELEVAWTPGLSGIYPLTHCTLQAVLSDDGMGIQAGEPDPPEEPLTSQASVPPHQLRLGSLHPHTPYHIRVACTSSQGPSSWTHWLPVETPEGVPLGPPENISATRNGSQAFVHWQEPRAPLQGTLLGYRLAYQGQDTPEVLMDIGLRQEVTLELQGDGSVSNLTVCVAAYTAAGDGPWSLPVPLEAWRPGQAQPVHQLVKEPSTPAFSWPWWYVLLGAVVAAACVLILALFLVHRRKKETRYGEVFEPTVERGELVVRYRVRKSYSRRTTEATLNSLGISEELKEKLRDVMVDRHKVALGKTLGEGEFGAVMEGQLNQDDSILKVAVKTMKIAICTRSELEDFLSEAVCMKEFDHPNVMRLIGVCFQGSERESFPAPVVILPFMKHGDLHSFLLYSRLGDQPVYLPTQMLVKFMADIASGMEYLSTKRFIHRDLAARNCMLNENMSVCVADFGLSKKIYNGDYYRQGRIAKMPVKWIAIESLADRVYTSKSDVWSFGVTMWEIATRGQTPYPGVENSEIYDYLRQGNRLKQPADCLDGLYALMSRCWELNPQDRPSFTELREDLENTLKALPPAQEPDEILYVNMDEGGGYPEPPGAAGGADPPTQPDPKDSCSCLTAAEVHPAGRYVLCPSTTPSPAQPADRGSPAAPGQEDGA

[3] = Intrinsic clearance in human liver microsomes; type: ADME, Microsome; conditions: read-out: CLH
[4] = Intrinsic clearance in rat hepatocytes assessed per 10^6 cells; type: ADME, cell-based, Hepatocyte; conditions: read-out: CLH
[5] = target: T2, Tyrosine-protein kinase Mer (Homo sapiens, UniProt Q12866); experiment: as §1, with “6His/thrombin cleavage site-fused Avi-tagged dephosphorylated MER” for “GST-tagged AXL”, “(R528” for “(464”, “M999” for “485”, “120” for “180”
T2 sequence (Q12866 whole entry): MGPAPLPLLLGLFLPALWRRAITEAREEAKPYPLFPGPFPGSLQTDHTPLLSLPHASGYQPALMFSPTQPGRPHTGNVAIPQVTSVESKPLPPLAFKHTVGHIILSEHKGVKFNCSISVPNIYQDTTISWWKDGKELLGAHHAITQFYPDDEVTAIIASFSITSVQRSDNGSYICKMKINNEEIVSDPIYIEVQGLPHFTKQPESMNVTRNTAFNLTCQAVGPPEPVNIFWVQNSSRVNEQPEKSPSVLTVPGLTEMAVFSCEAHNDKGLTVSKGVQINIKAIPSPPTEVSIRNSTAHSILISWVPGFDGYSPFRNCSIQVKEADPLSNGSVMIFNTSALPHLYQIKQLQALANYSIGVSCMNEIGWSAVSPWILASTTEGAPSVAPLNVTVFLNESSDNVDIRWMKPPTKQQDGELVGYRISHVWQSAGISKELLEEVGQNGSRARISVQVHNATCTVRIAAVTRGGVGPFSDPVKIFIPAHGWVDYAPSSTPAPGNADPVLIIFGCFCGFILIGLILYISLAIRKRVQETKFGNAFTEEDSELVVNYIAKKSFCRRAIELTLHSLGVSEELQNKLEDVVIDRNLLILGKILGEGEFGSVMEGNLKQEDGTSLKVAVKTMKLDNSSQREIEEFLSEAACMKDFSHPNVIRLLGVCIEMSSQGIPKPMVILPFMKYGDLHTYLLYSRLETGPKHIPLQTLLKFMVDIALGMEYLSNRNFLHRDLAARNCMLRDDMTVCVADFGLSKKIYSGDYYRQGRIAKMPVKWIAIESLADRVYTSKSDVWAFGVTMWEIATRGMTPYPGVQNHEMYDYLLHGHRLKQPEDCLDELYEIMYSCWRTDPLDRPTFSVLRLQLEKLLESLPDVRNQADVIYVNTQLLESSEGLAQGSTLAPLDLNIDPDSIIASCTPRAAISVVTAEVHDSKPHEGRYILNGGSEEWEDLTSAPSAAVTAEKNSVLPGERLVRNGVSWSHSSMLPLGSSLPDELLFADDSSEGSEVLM

solubility [1] | IC50 [2] | microsomal CLint [3] | hepatocyte CLint [4] | IC50 [5] | Structure (SMILES)
4 µM (≈ 1.44 µg/mL) | 1580 nM | > 270 µL/min/mg | 160 µL/min/1e6 cells | 50.1 nM | CNc1nc(OCC2CCC2)nc2c1ncn2Cc1c(F)cccc1F
< 1.6 µM | 10 nM | 200 µL/min/mg | 33 µL/min/1e6 cells | 25.1 nM | CNC(=O)c1sc(N2CC3CC2(CNC(=O)c2c[nH]c4ncccc24)C3)nc1C(F)(F)F
2 µM (≈ 0.998 µg/mL) | 10 nM | > 300 µL/min/mg | 120 µL/min/1e6 cells | 25.1 nM | CNC(=O)c1sc(N2CC3CC2(CNC(=O)c2c[nH]c4ncc(Cl)cc24)C3)nc1C(F)(F)F
120 µM (≈ 44.8 µg/mL) | 39800 nM | 55 µL/min/mg | 22 µL/min/1e6 cells | 631 nM | CCn1c(-c2nnc(N(C)Cc3ccc4nccn4c3)o2)nc2ccccc21
33 µM (≈ 12.9 µg/mL) | 3980 nM | 150 µL/min/mg | 52 µL/min/1e6 cells | 100 nM | CN(Cc1ccc2nccn2c1)c1nnc(-c2ccc(OC3CCCC3)cc2)o1
260 µM (≈ 117 µg/mL) | 3160 nM | < 3 µL/min/mg | 3 µL/min/1e6 cells | 251 nM | COc1cc2ncnc(Nc3cnc(OCCC4CC4)nc3)c2cc1OCC1CCNCC1
400 µM (≈ 190 µg/mL) | 1580 nM | < 3 µL/min/mg | < 2.4 µL/min/1e6 cells | 50.1 nM | C[C@@H]1CN(c2cnc(Nc3cc(F)c(OCC4CC4)c(F)c3)nc2NC2CCOCC2)CCN1
< 1.6 µM | 3.98 nM | > 270 µL/min/mg | 92 µL/min/1e6 cells | 12.6 nM | CNC(=O)c1sc(N2CC3CC2(CNC(=O)c2c[nH]c4ncc(C)cc24)C3)nc1C(F)(F)F

The next lines start with the molecule.

Structure (SMILES) | solubility [1] | IC50 [2] | microsomal CLint [3] | hepatocyte CLint [4] | IC50 [5]
Cc1cc(N(C)C)ccc1-c1nnc(N(C)Cc2ccc3nccn3c2)o1 | 23 µM (≈ 8.34 µg/mL) | 15800 nM | 55 µL/min/mg | 44 µL/min/1e6 cells | 631 nM
O=S(=O)(c1ccc(Nc2ncc(N3CCOCC3)c(Nc3ccccc3)n2)cc1)N1CCCCC1 | 0.6 µM (≈ 0.297 µg/mL) | 200 nM | 190 µL/min/mg | 88 µL/min/1e6 cells | 50.1 nM
Cc1c(C(=O)Nc2ccc(Oc3ccnc4[nH]cc(-c5ccccc5)c34)c(F)c2)c(=O)n(-c2ccc(F)cc2)n1C | 0.01 µM (≈ 0.00552 µg/mL) | 3.16 nM | 16 µL/min/mg | 210 µL/min/1e6 cells | 1.58 nM
CN(Cc1ccc2nccn2c1)c1nnc(-c2ncc(C(F)(F)F)cc2Cl)o1 | 301 µM (≈ 123 µg/mL) | > 100000 nM | 11 µL/min/mg | 6 µL/min/1e6 cells | 794 nM
CN(Cc1ccc2nccn2c1)c1nnc(-c2ccc(-c3ccccc3Cl)nc2)o1 | 10 µM (≈ 4.17 µg/mL) | 3160 nM | 92 µL/min/mg | 16 µL/min/1e6 cells | 126 nM
CNC(=O)c1sc(N2CC3CC2(CNC(=O)c2c[nH]c4ncc(C(F)(F)F)cc24)C3)nc1C(F)(F)F | < 1.6 µM | 25.1 nM | 130 µL/min/mg | 78 µL/min/1e6 cells | 63.1 nM
CN(Cc1ccc2nccn2c1)c1nnc(-c2ccc(-c3ccccc3Cl)cc2)o1 | 1.1 µM (≈ 0.457 µg/mL) | 398 nM | 46 µL/min/mg | 21 µL/min/1e6 cells | 5.01 nM
CN(Cc1ccc2c(c1)CCCO2)c1nnc(-c2ccc(-c3ccccc3Cl)cc2)o1 | 0.1 µM (≈ 0.0432 µg/mL) | 398 nM | 19 µL/min/mg | 19 µL/min/1e6 cells | 25.1 nM
CNC(=O)C[C@@H](NC(=O)[C@@H](CCc1ccccc1)NC(=O)c1c(C)noc1-c1snnc1C)c1ccc(C(F)(F)F)cc1 | < 0.2 µM | 15.8 nM | > 300 µL/min/mg | 260 µL/min/1e6 cells | 5.01 nM
